Source: ChEMBL document CHEMBL4304811, “Development of a Water-Soluble Indolylmaleimide Derivative IM-93 Showing Dual Inhibition of Ferroptosis and NETosis” (ACS Med Chem Lett, 2019)

Assays:
[1] = molecular target: AP2-associated protein kinase 1 (Homo sapiens) (UniProt Q2M2I8); test: Binding affinity to wild-type human partial length AAK1 (G25 to L333 residues) expressed in bacterial expression system assessed as residual binding level at 10 uM by Kinomescan method relative to control
[2] = molecular target: Tyrosine-protein kinase ABL2 (Homo sapiens) (UniProt P42684); test: Binding affinity to wild-type human ABL2 (A248 to G542 residues) expressed in bacterial expression system assessed as residual binding level at 10 uM by Kinomescan method relative to control
[3] = molecular target: Activin receptor type-1-like (Homo sapiens) (UniProt P37023); test: Binding affinity to wild-type human ACVRL1 (L164 to Q503 residues) expressed in bacterial expression system assessed as residual binding level at 10 uM by Kinomescan method relative to control
[4] = molecular target: Serine/threonine-protein kinase BRSK2 (Homo sapiens) (UniProt Q8IWQ3); test: Binding affinity to wild-type human full length BRSK2 (M1 to L674 residues) expressed in bacterial expression system assessed as residual binding level at 10 uM by Kinomescan method relative to control
[5] = molecular target: Casein kinase I isoform epsilon (Homo sapiens) (UniProt P49674); test: Binding affinity to wild-type human full length CSNK1E (M1 to K416 residues) expressed in bacterial expression system assessed as residual binding level at 10 uM by Kinomescan method relative to control
[6] = molecular target: Death-associated protein kinase 3 (Homo sapiens) (UniProt O43293); test: Binding affinity to wild-type human partial length DAPK3 (M1 to A277 residues) expressed in bacterial expression system assessed as residual binding level at 10 uM by Kinomescan method relative to control
[7] = system: Epidermal growth factor receptor (Homo sapiens), P00533 [L858R,T790M]; test: Binding affinity to human partial length EGFR L858R/T790M double mutant (R669 to V1011 residues) expressed in mammalian expression system assessed as residual binding level at 10 uM by Kinomescan method relative to control
[8] = molecular target: Ephrin type-A receptor 3 (Homo sapiens) (UniProt P29320); test: Binding affinity to wild-type human partial length EPHA3 (D604 to K889 residues) expressed in bacterial expression system assessed as residual binding level at 10 uM by Kinomescan method relative to control
[9] = molecular target: Ephrin type-B receptor 6 (Homo sapiens) (UniProt O15197); test: Binding affinity to wild-type human partial length EPHB6 (Q634 to P948 residues) expressed in mammalian expression system assessed as residual binding level at 10 uM by Kinomescan method relative to control
[10] = molecular target: Mitogen-activated protein kinase 15 (Homo sapiens) (UniProt Q8TD08); test: Binding affinity to wild-type human partial length ERK8 (M1 to P437 residues) expressed in bacterial expression system assessed as residual binding level at 10 uM by Kinomescan method relative to control
[11] = molecular target: Focal adhesion kinase 1 (Homo sapiens) (UniProt Q05397); test: Binding affinity to wild-type human partial length FAK (D402 to R696 residues) expressed in bacterial expression system assessed as residual binding level at 10 uM by Kinomescan method relative to control
[12] = molecular target: Rhodopsin kinase GRK1 (Homo sapiens) (UniProt Q15835); test: Binding affinity to wild-type human full length GRK1 (M1 to S563 residues) expressed in mammalian expression system assessed as residual binding level at 10 uM by Kinomescan method relative to control
[13] = molecular target: Tyrosine-protein kinase HCK (Homo sapiens) (UniProt P08631); test: Binding affinity to wild-type human full length HCK (M22 to P526 residues) expressed in bacterial expression system assessed as residual binding level at 10 uM by Kinomescan method relative to control
[14] = molecular target: Homeodomain-interacting protein kinase 2 (Homo sapiens) (UniProt Q9H2X6); test: Binding affinity to wild-type human partial length HIPK2 (M153 to S564 residues) expressed in mammalian expression system assessed as residual binding level at 10 uM by Kinomescan method relative to control
[15] = molecular target: Hormonally up-regulated neu tumor-associated kinase (Homo sapiens) (UniProt P57058); test: Binding affinity to wild-type human partial length HUNK (A31 to K354 residues) expressed in bacterial expression system assessed as residual binding level at 10 uM by Kinomescan method relative to control
[16] = molecular target: Interleukin-1 receptor-associated kinase 1 (Homo sapiens) (UniProt P51617); test: Binding affinity to wild-type human partial length IRAK1 (R194 to S712 residues) expressed in mammalian expression system assessed as residual binding level at 10 uM by Kinomescan method relative to control
[17] = molecular target: Mitogen-activated protein kinase 8 (Homo sapiens) (UniProt P45983); test: Binding affinity to wild-type human full length JNK1 (M1 to Q384 residues) expressed in mammalian expression system assessed as residual binding level at 10 uM by Kinomescan method relative to control
[18] = molecular target: Tyrosine-protein kinase Lyn (Homo sapiens) (UniProt P07948); test: Binding affinity to wild-type human partial length LYN (C219 to Q511 residues) expressed in bacterial expression system assessed as residual binding level at 10 uM by Kinomescan method relative to control
[19] = molecular target: Dual specificity mitogen-activated protein kinase kinase 3 (Homo sapiens) (UniProt P46734); test: Binding affinity to wild-type human full length MEK3 (M1 to S318 residues) expressed in mammalian expression system assessed as residual binding level at 10 uM by Kinomescan method relative to control
[20] = molecular target: Serine/threonine-protein kinase 26 (Homo sapiens) (UniProt Q9P289); test: Binding affinity to wild-type human full length MST4 (M1 to P416 residues) expressed in mammalian expression system assessed as residual binding level at 10 uM by Kinomescan method relative to control
[21] = molecular target: Ribosomal protein S6 kinase alpha-4 (Homo sapiens) (UniProt O75676); test: Binding affinity to wild-type human partial length N-terminal RPS6KA4 kinase domain 1 expressed in bacterial expression system assessed as residual binding level at 10 uM by Kinomescan method relative to control
[22] = molecular target: STE20-like serine/threonine-protein kinase (Homo sapiens) (UniProt Q9H2G2); test: Binding affinity to wild-type human partial length SLK (S14 to A307 residues) expressed in bacterial expression system assessed as residual binding level at 10 uM by Kinomescan method relative to control
[23] = molecular target: SRSF protein kinase 3 (Homo sapiens) (UniProt Q9UPE1); test: Binding affinity to wild-type human partial length SRPK3 (P41 to P567 residues) expressed in bacterial expression system assessed as residual binding level at 10 uM by Kinomescan method relative to control
[24] = molecular target: TRAF2 and NCK-interacting protein kinase (Homo sapiens) (UniProt Q9UKE5); test: Binding affinity to wild-type human partial length TNIK (D4 to K311 residues) expressed in bacterial expression system assessed as residual binding level at 10 uM by Kinomescan method relative to control
NIH3T3 = test: Inhibition of TBHP-induced ferroptosis in mouse NIH/3T3 cells after 12 hrs by WST-8 assay; assay type: functional, cell-based; conditions: NIH3T3, 12 h

Chain of Hormonally up-regulated neu tumor-associated kinase (Homo sapiens) (P57058 whole entry, the tested form may be a part): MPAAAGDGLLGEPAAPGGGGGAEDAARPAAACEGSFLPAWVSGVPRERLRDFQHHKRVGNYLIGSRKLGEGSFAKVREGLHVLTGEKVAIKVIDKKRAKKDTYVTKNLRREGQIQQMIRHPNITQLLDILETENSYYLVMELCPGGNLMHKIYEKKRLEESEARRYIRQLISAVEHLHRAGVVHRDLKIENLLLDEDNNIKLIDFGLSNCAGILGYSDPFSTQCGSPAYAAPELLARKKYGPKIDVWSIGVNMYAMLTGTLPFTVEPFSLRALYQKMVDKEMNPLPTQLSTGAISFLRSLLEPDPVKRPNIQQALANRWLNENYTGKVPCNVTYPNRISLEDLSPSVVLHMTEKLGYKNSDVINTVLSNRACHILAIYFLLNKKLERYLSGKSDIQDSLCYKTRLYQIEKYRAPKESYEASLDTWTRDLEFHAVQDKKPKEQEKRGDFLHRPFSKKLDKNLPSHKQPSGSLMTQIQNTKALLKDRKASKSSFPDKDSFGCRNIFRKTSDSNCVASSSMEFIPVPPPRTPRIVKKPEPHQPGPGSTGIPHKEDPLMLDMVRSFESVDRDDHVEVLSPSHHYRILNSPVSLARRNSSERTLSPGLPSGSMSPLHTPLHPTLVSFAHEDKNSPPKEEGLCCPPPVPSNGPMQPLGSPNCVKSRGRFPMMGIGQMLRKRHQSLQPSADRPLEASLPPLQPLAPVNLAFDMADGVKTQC
Chain of Ribosomal protein S6 kinase alpha-4 (Homo sapiens) (O75676 whole entry, looked up, the tested form may be a part): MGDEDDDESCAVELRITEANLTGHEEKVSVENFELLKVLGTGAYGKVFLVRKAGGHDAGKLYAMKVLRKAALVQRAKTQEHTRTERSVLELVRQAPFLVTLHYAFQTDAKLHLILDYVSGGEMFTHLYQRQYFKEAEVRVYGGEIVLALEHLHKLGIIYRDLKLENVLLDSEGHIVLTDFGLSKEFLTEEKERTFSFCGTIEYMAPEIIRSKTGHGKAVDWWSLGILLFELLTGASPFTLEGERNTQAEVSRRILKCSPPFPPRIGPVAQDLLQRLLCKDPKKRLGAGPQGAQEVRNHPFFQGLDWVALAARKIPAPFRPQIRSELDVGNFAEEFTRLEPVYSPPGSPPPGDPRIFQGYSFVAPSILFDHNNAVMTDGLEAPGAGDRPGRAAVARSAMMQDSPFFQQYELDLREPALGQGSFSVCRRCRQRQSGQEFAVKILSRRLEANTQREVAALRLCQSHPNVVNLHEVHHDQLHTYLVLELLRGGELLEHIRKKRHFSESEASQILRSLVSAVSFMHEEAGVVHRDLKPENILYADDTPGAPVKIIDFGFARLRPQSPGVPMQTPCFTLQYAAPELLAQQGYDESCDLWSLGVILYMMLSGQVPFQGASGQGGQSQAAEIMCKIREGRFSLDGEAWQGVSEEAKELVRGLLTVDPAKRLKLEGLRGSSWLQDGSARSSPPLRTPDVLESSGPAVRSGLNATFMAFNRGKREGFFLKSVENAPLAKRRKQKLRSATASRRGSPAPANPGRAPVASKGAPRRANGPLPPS
Chain of Rhodopsin kinase GRK1 (Homo sapiens) (Q15835 whole entry, the tested form may be a part): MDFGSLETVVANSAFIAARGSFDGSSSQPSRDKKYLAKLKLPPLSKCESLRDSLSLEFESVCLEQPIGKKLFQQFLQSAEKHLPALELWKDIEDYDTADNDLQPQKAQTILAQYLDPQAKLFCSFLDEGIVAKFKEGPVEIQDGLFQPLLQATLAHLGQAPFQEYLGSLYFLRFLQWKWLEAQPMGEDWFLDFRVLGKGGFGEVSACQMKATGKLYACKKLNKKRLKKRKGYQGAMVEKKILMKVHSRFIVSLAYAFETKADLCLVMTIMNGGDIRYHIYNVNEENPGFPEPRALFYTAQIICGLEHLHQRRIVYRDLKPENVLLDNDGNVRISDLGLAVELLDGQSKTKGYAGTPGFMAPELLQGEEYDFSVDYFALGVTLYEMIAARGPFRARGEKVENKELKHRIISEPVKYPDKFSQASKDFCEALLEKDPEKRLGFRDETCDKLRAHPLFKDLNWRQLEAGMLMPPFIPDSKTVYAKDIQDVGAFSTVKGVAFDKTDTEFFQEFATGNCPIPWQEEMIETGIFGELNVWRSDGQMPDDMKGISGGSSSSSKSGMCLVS
Chain of Interleukin-1 receptor-associated kinase 1 (Homo sapiens) (P51617 whole entry, looked up, the tested form may be a part): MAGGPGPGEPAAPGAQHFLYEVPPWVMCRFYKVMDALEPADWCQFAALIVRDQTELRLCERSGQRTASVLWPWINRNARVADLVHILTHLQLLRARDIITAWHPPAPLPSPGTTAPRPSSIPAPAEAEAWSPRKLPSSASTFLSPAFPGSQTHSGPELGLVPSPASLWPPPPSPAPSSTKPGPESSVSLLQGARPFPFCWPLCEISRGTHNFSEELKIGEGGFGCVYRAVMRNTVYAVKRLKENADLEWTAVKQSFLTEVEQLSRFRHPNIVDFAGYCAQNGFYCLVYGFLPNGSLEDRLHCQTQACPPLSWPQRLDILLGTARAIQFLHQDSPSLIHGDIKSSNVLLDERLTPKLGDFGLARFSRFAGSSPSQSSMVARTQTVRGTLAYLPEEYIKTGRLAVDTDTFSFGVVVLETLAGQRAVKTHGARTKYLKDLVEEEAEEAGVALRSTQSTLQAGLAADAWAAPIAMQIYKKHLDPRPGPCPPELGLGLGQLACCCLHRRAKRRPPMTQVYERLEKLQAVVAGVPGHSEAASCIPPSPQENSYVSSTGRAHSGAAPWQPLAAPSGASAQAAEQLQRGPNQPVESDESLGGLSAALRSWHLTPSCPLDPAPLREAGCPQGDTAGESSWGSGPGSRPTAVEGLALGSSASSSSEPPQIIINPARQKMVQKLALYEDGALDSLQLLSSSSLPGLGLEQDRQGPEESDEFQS
Chain of Tyrosine-protein kinase ABL2 (Homo sapiens) (P42684 whole entry, the tested form may be a part): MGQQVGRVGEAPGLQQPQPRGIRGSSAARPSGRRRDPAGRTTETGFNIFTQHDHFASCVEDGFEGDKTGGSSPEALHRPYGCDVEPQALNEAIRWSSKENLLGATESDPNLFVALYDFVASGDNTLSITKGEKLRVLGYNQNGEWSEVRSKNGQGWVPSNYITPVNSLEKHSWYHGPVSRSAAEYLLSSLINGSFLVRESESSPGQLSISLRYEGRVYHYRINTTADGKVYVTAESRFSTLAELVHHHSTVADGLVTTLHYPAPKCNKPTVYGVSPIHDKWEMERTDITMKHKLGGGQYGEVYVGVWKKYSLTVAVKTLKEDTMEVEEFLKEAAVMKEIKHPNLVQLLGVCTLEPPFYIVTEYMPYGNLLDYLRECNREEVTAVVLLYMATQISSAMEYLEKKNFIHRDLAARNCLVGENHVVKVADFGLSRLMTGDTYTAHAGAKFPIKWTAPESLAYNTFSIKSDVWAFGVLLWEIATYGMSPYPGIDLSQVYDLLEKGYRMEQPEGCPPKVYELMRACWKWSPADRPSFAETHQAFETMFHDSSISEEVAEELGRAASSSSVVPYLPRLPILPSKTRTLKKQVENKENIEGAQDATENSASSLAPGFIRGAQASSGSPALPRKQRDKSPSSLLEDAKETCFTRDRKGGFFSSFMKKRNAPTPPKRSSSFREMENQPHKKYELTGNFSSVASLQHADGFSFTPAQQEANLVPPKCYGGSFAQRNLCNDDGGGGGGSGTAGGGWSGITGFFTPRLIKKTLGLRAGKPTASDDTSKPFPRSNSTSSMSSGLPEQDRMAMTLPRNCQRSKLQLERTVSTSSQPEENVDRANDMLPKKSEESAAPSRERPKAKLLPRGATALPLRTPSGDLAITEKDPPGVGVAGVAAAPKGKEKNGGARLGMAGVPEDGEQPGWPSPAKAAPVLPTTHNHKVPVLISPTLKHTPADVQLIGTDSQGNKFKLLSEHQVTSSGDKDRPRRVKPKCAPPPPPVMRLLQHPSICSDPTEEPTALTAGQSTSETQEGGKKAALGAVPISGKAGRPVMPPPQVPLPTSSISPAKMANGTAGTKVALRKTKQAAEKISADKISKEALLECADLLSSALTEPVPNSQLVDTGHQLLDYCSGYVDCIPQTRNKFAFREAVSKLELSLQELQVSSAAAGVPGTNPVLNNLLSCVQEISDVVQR
Chain of Death-associated protein kinase 3 (Homo sapiens) (O43293 whole entry, looked up, the tested form may be a part): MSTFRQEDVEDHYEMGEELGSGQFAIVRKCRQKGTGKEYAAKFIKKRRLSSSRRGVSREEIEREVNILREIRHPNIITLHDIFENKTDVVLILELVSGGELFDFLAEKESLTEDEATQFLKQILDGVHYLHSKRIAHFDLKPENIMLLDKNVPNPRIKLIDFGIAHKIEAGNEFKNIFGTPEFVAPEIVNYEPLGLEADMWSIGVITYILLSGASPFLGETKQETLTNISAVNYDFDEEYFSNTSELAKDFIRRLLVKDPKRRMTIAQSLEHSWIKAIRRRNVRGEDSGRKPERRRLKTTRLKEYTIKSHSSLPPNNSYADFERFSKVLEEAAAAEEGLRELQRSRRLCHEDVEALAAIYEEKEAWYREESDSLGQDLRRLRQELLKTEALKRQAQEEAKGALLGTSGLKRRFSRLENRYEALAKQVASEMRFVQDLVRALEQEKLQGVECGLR
Chain of Serine/threonine-protein kinase 26 (Homo sapiens) (Q9P289 2-416 limits assumed): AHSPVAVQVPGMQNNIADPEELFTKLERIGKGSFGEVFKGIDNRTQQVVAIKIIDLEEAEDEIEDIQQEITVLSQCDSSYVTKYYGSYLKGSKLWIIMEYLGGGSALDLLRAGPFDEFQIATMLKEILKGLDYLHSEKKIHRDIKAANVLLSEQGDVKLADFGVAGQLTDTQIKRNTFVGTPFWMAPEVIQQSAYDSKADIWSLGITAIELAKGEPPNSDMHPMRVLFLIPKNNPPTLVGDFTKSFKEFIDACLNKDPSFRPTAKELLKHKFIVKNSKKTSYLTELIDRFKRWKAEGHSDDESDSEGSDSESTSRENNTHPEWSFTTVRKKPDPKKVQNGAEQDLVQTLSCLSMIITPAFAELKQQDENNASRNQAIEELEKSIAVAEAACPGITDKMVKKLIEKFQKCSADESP

CC(C)N1C(=O)C(NCCCN(C)C)=C(c2cn(C)c3ccccc23)C1=O.Cl
Activity [1]: 100% | Activity [2]: 98% | Activity [3]: 100% | Activity [4]: 86% | Activity [5]: 89% | Activity [6]: 98% | Activity [7]: 100% | Activity [8]: 100% | Activity [9]: 74% | Activity [10]: 95% | Activity [11]: 100% | Activity [12]: 96% | Activity [13]: 100% | Activity [14]: 100% | Activity [15]: 100% | Activity [16]: 66% | Activity [17]: 91% | Activity [18]: 98% | Activity [19]: 97% | Activity [20]: 83% | Activity [21]: 100% | Activity [22]: 78% | Activity [23]: 100% | Activity [24]: 100% | IC50 (NIH3T3): 1800 nM
